# According to ChEMBL document CHEMBL4130349, “Discovery and structure-activity relationship studies of 2-benzylidene-2,3-dihydro-1H-inden-1-one and benzofuran-3(2H)-one derivatives as a novel class of potential therapeutics for inflammatory bowel disease” (Eur J Med Chem, 2017):
# Activity calls are given as the source filed them. The calls are words filed in the database; no cut-off is given here.
# How the values were obtained:
# [1] = tested on: HT-29; experiment: Inhibition of TNF-alpha-induced adhesion of BCECF-labeled human U937 cells to human HT-29 cells at 10 uM preincubated for 1 hr followed by TNF-alpha challenge measured after 3 hrs by fluorescence microscopic method relative to control; assay type: functional
# [2] = tested on: HT-29; experiment: Potency index, ratio of 5-ASA IC50 to test compound IC50 for inhibition of TNF-alpha-induced adhesion of BCECF-labeled human U937 cells to human HT-29 cells; assay type: functional
# [3] = tested on: Rattus norvegicus; experiment: Antiinflammatory activity in po dosed TNBS-induced Sprague-Dawley rat colitis model assessed as recovery of colon tissue edematous inflammation administered once a day for 5 days measured on day 6; assay type: functional, organism-based
# [4] = tested on: HT-29; experiment: Inhibition of LPS-induced TNF-alpha expression in human HT-29 cells preincubated for 1 hr followed by TNF-alpha challenge measured after 3 hrs by Western blot method; assay type: functional, cell-based
# [5] = tested on: Rattus norvegicus; experiment: Antiinflammatory activity in po dosed TNBS-induced Sprague-Dawley rat colitis model assessed as decrease in MPO levels in colon tissue administered once per day for 5 days measured on day 6; assay type: functional, organism-based
# [6] = tested on: Rattus norvegicus; experiment: Antiinflammatory activity in po dosed TNBS-induced Sprague-Dawley rat colitis model assessed as recovery in body weight decrease administered once a day for 5 days measured on day 6; assay type: functional, organism-based
# [7] = tested on: HT-29; experiment: Inhibition of TNF-alpha-induced MCP-1 expression in human HT-29 cells preincubated for 1 hr followed by TNF-alpha challenge measured after 3 hrs by Western blot analysis; assay type: functional, cell-based
# [8] = tested on: HT-29; experiment: Inhibition of LPS-induced TNF-alpha expression in human HT-29 cells at 10 uM preincubated for 1 hr followed by TNF-alpha challenge measured after 3 hrs by Western blot method; assay type: functional, cell-based
# [9] = tested on: HT-29; experiment: Inhibition of TNF-alpha-induced ICAM-1 expression in human HT-29 cells preincubated for 1 hr followed by TNF-alpha challenge measured after 3 hrs by Western blot analysis; assay type: functional, cell-based
# [10] = tested on: HT-29; experiment: Inhibition of TNF-alpha-induced NFkappa-B transcriptional activity in human HT-29 cells at 10 uM preincubated for 1 hr followed by TNF-alpha challenge measured after 3 hrs by dual luciferase reporter gene assay; assay type: functional, cell-based
# [11] = tested on: HT-29; experiment: Inhibition of TNF-alpha-induced adhesion of BCECF-labeled human U937 cells to human HT-29 cells preincubated for 1 hr followed by TNF-alpha challenge measured after 3 hrs by fluorescence microscopic method; assay type: functional, cell-based
# [12] = tested on: HT-29; experiment: Inhibition of TNF-alpha-induced ROS production in human HT-29 cells preincubated for 1 hr followed by TNF-alpha challenge measured after 30 mins by DCF-DA dye-based fluorescence microscopy; assay type: functional, cell-based
# [13] = tested on: HT-29; experiment: Inhibition of TNF-alpha-induced AP-1 transcriptional activity in human HT-29 cells at 10 uM preincubated for 1 hr followed by TNF-alpha challenge measured after 3 hrs by dual luciferase reporter gene assay; assay type: functional, cell-based
# [14] = tested on: HT-29; experiment: Inhibition of TNF-alpha-induced ICAM-1 expression in human HT-29 cells at 10 uM preincubated for 1 hr followed by TNF-alpha challenge measured after 3 hrs by Western blot analysis; assay type: functional, cell-based
# [15] = tested on: HT-29; experiment: Inhibition of TNF-alpha-induced ROS production in human HT-29 cells at 10 uM preincubated for 1 hr followed by TNF-alpha challenge measured after 30 mins by DCF-DA dye-based fluorescence microscopy; assay type: functional, cell-based
# [16] = tested on: HT-29; experiment: Inhibition of TNF-alpha-induced MCP-1 expression in human HT-29 cells at 10 uM preincubated for 1 hr followed by TNF-alpha challenge measured after 3 hrs by Western blot analysis; assay type: functional, cell-based
# [17] = tested on: Rattus norvegicus; experiment: Antiinflammatory activity in TNBS-induced Sprague-Dawley rat colitis model assessed as recovery in body weight decrease at 300 mg/kg, po qd administered for 5 days measured on day 6; assay type: functional, organism-based
# [18] = tested on: Rattus norvegicus; experiment: Antiinflammatory activity in TNBS-induced Sprague-Dawley rat colitis model assessed as recovery of colon tissue edematous inflammation at 300 mg/kg, po qd administered for 5 days measured on day 6; assay type: functional, organism-based
# [19] = tested on: HT-29; experiment: Inhibition of TNF-alpha-induced ROS production in human HT-29 cells at 100 uM preincubated for 1 hr followed by TNF-alpha challenge measured after 30 mins by DCF-DA dye-based fluorescence microscopy; assay type: functional, cell-based
smiles,measurement,setting,value
O=C1/C(=C/c2cccc(O)c2)Cc2ccc(O)cc21,inhibition at 10 µM,[1],62.7%
O=C1/C(=C/c2ccccc2O)Cc2cccc(O)c21,inhibition at 10 µM,[1],67.9%
O=C1/C(=C/c2ccc(O)cc2)Oc2cc(O)ccc21,Ratio IC50,[2],40000
same,Activity,[3],Dose-dependent effect
same,inhibition,[4],Dose-dependent effect
same,inhibition,[5],Dose-dependent effect
same,Activity,[6],Dose-dependent effect
same,inhibition,[7],Dose-dependent effect
same,inhibition,[8],Active
same,inhibition,[9],Dose-dependent effect
same,inhibition at 10 µM,[1],80.3%
same,inhibition,[10],Active
same,IC50,[11],0.5 µM
same,inhibition,[11],Dose-dependent effect
same,inhibition,[12],Active
same,inhibition,[13],Active
O=C1/C(=C/c2ccc(O)cc2)Cc2ccc(O)cc21,inhibition,[14],Active
same,inhibition,[15],Active
same,inhibition,[16],Active
same,inhibition,[8],Active
same,inhibition at 10 µM,[1],80.3%
same,inhibition,[10],Active
same,IC50,[11],0.83 µM
same,inhibition,[13],Active
O=C1/C(=C/c2ccc(O)cc2)Cc2cc(O)ccc21,inhibition at 10 µM,[1],45.4%
O=C1/C(=C/c2cccc(O)c2)Cc2cc(O)ccc21,inhibition at 10 µM,[1],50.2%
COc1ccc(/C=C2\Cc3c(O)cccc3C2=O)cc1O,inhibition at 10 µM,[1],0.1%
O=C1/C(=C/c2ccccn2)Cc2ccccc21,inhibition at 10 µM,[1],21.9%
O=C1/C(=C/c2ccc(O)cc2)Cc2cccc(O)c21,inhibition at 10 µM,[1],69.8%
O=C1/C(=C/c2ccccc2)Cc2ccccc21,inhibition,[16],Active
same,inhibition at 10 µM,[1],55.3%
same,inhibition,[10],Active
same,IC50,[11],5.75 µM
O=C1/C(=C/c2ccccc2O)Cc2c(O)cccc21,inhibition at 10 µM,[1],30.3%
O=C1/C(=C/c2cccc(O)c2)Cc2c(O)cccc21,inhibition at 10 µM,[1],6.1%
O=C1/C(=C/c2ccccc2Cl)Oc2cc(O)ccc21,inhibition at 10 µM,[1],45.5%
O=C1/C(=C/c2cccc(F)c2)Cc2ccccc21,inhibition at 10 µM,[1],22.1%
O=C1/C(=C/c2cccc(-c3ccccc3)c2)Cc2ccccc21,inhibition at 10 µM,[1],33.4%
O=C1/C(=C/c2ccccc2O)Oc2ccccc21,inhibition,[14],Active
same,inhibition,[15],Active
same,inhibition,[16],Active
same,inhibition at 10 µM,[1],85.6%
same,inhibition,[10],Active
same,IC50,[11],0.95 µM
O=C1/C(=C/c2ccc(Cl)cc2)Cc2c(O)cccc21,inhibition at 10 µM,[1],10.6%
O=C1/C(=C/c2ccc(F)cc2)Cc2ccccc21,inhibition at 10 µM,[1],7.1%
O=C1/C(=C/c2ccc(Cl)cc2)Oc2ccccc21,inhibition at 10 µM,[1],68.7%
O=C1/C(=C/c2ccc(Cl)cc2)Cc2ccccc21,inhibition at 10 µM,[1],-6.1%
O=C1/C(=C/c2ccc(Cl)o2)Cc2ccccc21,inhibition at 10 µM,[1],-8.9%
O=C(O)c1cc(/N=N/c2ccc(S(=O)(=O)Nc3ccccn3)cc2)ccc1O,inhibition,[17],Active
same,inhibition,[18],Active
O=C1/C(=C/c2cccc(O)c2)Oc2ccccc21,inhibition,[14],Active
same,inhibition,[15],Active
same,inhibition,[16],Active
same,inhibition at 10 µM,[1],75.4%
same,inhibition,[10],Active
same,IC50,[11],3.17 µM
O=C1/C(=C/c2ccc(Cl)cc2)Cc2ccc(O)cc21,inhibition at 10 µM,[1],67.9%
O=C1/C(=C/c2ccccc2OC(F)(F)F)Cc2ccccc21,inhibition at 10 µM,[1],3.4%
COc1cc(C(C)=O)ccc1O,inhibition,[19],Active
O=C1/C(=C/c2cccc(O)c2)Cc2cccc(O)c21,inhibition at 10 µM,[1],60.5%
O=C1/C(=C/c2ccc(C(F)(F)F)cc2)Cc2ccccc21,inhibition at 10 µM,[1],22.5%
O=C1/C(=C/c2ccc(Cl)o2)Oc2ccccc21,inhibition at 10 µM,[1],62.2%
O=C1/C(=C/c2ccc(Cl)cc2)Cc2cccc(O)c21,inhibition,[14],Active
same,inhibition,[15],Active
same,inhibition,[16],Active
same,inhibition at 10 µM,[1],78.4%
same,inhibition,[10],Active
same,IC50,[11],1.64 µM
